# Source: patent US6831190B1, “Guanidinomethyl cyclohexane carboxylic acid ester derivatives” (Teikoku Chemical Industries Co., Ltd., priority 1994, dated 2004)
# What was measured:
# Type in all cases: cell-based
# [1] = system: Bacillus subtilis ATCC 6633; assay: MIC, standard method of Japanese Chemotherapy Academy; conditions: for MIC against bacillus subcillus ATCC 6633: standard method of Japanese Chemotherapy Academy; for MIC: Strain 13: Bacillus subtilis ATCC 6633
# Method: (§1) 1. Minimum Inhibitory Concentration (MIC) was measured in accordance with the standard method of Japanese Chemotherapy Academy (Chemotherapy, 29: 76-79, 1981).
# (§2) And MIC of the compounds of Example 3, 36, 8, 14, 17, 21, 41 and 45 were measured.
# [2] = system: Helicobacter pylori ATCC 43504; assay: MIC and MBC, liquid medium dilution; conditions: Objected Strain 1: Helicobacter pylori ATCC 43504
# Method: (§3) 2. Minimum Inhibitory Concentration (MIC) and Minimum Bacteria sterilizeory Concentration (MBC) against helicobacter pylon were measured in accordance with the liquid medium dilution. […] And […] of helicobacter pylon bacterial solution, which was cultured at 37° C. for three days and then diluted and prepared with the above mentioned liquid medium, was added to the mixtures to adjust the volume to 105 CFU/ml. […] After they were cultured by the same method as above mentioned, minimum concentration of the compounds which were not recognized the growth with the naked eyes were measured as the values of MBC.
# [3] = system: Helicobacter pylori No. 2; assay: MIC and MBC, liquid medium dilution; conditions: Objected Strain 5: Helicobacter pylori No. 2
# Method: as §3
# [4] = system: Helicobacter pylori No. 4; assay: MIC and MBC, liquid medium dilution; conditions: Objected Strain 7: Helicobacter pylori No. 4
# Method: as §3
# [5] = system: Helicobacter pylori ATCC 43629; assay: MIC and MBC, liquid medium dilution; conditions: Objected Strain 2: Helicobacter pylori ATCC 43629
# Method: as §3
# [6] = system: Helicobacter pylori No. 1; assay: MIC and MBC, liquid medium dilution; conditions: Objected Strain 4: Helicobacter pylori No. 1
# Method: as §3
# [7] = system: Helicobacter pylori No. 3; assay: MIC and MBC, liquid medium dilution; conditions: Objected Strain 6: Helicobacter pylori No. 3
# Method: as §3
# [8] = system: Helicobacter pylori No. 2; assay: MIC, agar plating dilution, clinical segregation strain; conditions: Strain 5: Helicobacter pylori No. 2
# Method: (§4) Minimum Inhibitory Concentration (MIC) was measured in accordance with the standard method of Japanese Chemotherapy Academy (Chemotherapy, 29: 76-79, 1981). Sensitivity was measured with an agar plating dilution using Brain-Heart Infusion agar (Difco Co.) which was added 0.1% of cyclodextrin. […] of the solutions of the compounds which were obtained in examples of the present invention was prepared by dissolving in dimethylsulfoxide. […] Each of 1 ml of those prepared solutions was dispensed in share, after sterilization, 9 ml of sensitivity measuring medium which is kept at 50° C. was added to each, and they were sufficiently mixed. The mixture was used as a plate for measuring sensitivity. Brain Heart Infusion agar medium (Difco Co.), which was added 0.1% of cyclodextrin, was used as bacteria growing medium, and was cultured under microair at 37° C. for three days, and the number of bacteria thereof was adjusted to about 106/ml. This was used as a bacterial solution for inoculation. The medium was painted in each square about 2 cm with nichromic line loop. The medium was cultured under microair for three days at 37° C. […] The each result is shown at Table 4.
# [9] = system: Helicobacter pylori No. 4; assay: as above; conditions: Strain 7: Helicobacter pylori No. 4
# Method: as §4
# [10] = system: Helicobacter pylori No. 1; assay: as above; conditions: Strain 4: Helicobacter pylori No. 1
# Method: as §4
# [11] = system: Helicobacter pylori No. 3; assay: as above; conditions: Strain 6: Helicobacter pylori No. 3
# Method: as §4
# [12] = system: Helicobacter pylori ATCC 43504; assay: MIC, agar plating dilution (standard method of Japanese Chemotherapy Academy); conditions: Objected Strain 1: Helicobacter pylori ATCC 43504
# Method in brief: (§5)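 Agar dilution MIC followed the Japanese Chemotherapy Academy standard method, on Brain Heart Infusion agar with 0.1% cyclodextrin and compounds dissolved in DMSO. Plates were incubated microaerobically at 37 °C for three days.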
# [13] = system: Helicobacter pylori ATCC 43629; assay: as above; conditions: Objected Strain 2: Helicobacter pylori ATCC 43629
# Method in brief: as §5
# [14] = system: Escherichia coli NIH JC-2; assay: MIC, standard method of Japanese Chemotherapy Academy; conditions: Objected Strain 3: Escherichia coli NIH JC-2
# Method: as §1
# [15] = system: Staphylococcus aureus No. 2 (MRSA); assay: as above; conditions: Strain 14: Staphylococcus aureus No. 2 (MRSA)
# Method: as §1, §2
# [16] = system: Staphylococcus aureus ATCC 6538; assay: as above; conditions: Strain 12: Staphylococcus aureus ATCC 6538
# Method: as §1, §2
# [17] = system: Staphylococcus aureus 209PJC; assay: as above; conditions: Strain 11: Staphylococcus aureus 209PJC
# Method: as §1, §2
# [18] = system: Helicobacter pylori No. 28; assay: MIC, agar plating dilution, clinical segregation strain; conditions: Strain 10: Helicobacter pylori No. 28
# Method: as §4
# [19] = system: Helicobacter pylori No. 20; assay: as above; conditions: Strain 9: Helicobacter pylori No. 20
# Method: as §4
# [20] = system: Helicobacter pylori No. 19; assay: as above; conditions: Strain 8: Helicobacter pylori No. 19
# Method: as §4
MIC against bacillus subcillus ATCC 6633 [1] [mg/L],MIC [2] [mg/L],MIC [3] [mg/L],MIC [4] [mg/L],MIC [5] [mg/L],MIC [6] [mg/L],MIC [7] [mg/L],MIC [8] [mg/L],MIC [9] [mg/L],MIC [10] [mg/L],MIC [11] [mg/L],MIC [12] [mg/L],MIC [13] [mg/L],MIC [14] [mg/L],Compound,MBC [2] [mg/L],MBC [3] [mg/L],MBC [4] [mg/L],MBC [5] [mg/L],MBC [6] [mg/L],MBC [7] [mg/L],further results
> 25,0.20,0.39,0.39,0.39,0.20,0.05,0.39,0.20,0.10,0.10,0.78,0.39,>25,"Cl.N=C(N)NC[C@H]1CC[C@H](C(=O)Oc2ccc(-c3ccc(C(=O)OCc4ccc(Cl)cc4)cc3)cc2)CC1 [Example 15, trans4-guanidinomethyl cyclohexane carboxylic acid [4-[4-(4-chlorobenzyloxy carbonyl)phenyl]phenylester].hydrochloride]",0.39,1.56,0.39,1.56,0.78,0.10,
> 25,0.20,0.78,0.10,0.39,0.20,0.05,0.78,0.39,0.20,0.20,0.78,0.78,>25,"Cl.N=C(N)NC[C@H]1CC[C@H](C(=O)Oc2ccc(-c3ccc(C(=O)OCc4ccc(F)cc4)cc3)cc2)CC1 [Example 16, trans-4-guanidinomethyl cyclohexane carboxylic acid [4-[4-(4-fluorobenzyloxycarbonyl)phenyl]phenylester].hydrochloride]",0.39,3.13,0.39,1.56,0.78,0.10,
,,,,,,,0.39,3.13,0.39,0.39,0.39,0.39,>25,"Cl.N=C(N)NC[C@H]1CC[C@H](C(=O)Oc2ccc(-c3ccc(C(=O)OCCc4ccc(Cl)cc4)cc3)cc2)CC1 [Example 45, trans-4-guanidinomethyl cyclohexane carboxylic acid[4-[4-[2-(4-chlorophenyl)ethyloxycarbonyl)phenyl]phenylester].hydrochloride]",,,,,,,MIC [1]: >25 mg/L; MIC [15]: >25 mg/L; MIC [16]: >25 mg/L; MIC [17]: >25 mg/L; MIC [18]: 0.39 mg/L; MIC [19]: 0.20 mg/L; MIC [20]: 0.20 mg/L
,,,,,,,12.5,0.78,0.78,25.0,0.78,0.78,0.10,"CC1COc2c(N3CCN(C)CC3)c(F)cc3c(=O)c(C(=O)O)cn1c23 (centres unmarked) [Ophroxacine, ophroxacine, reference compound]",,,,,,,MIC [1]: 0.10 mg/L; MIC [15]: 12.5 mg/L; MIC [16]: 0.10 mg/L; MIC [17]: 0.39 mg/L; MIC [18]: 1.56 mg/L; MIC [19]: 0.78 mg/L; MIC [20]: 0.78 mg/L
